Here are results for two compounds from ChEMBL document CHEMBL4033763, “Synthesis and Anti-HCV Activity of a Novel 2',3'-Dideoxy-2'-α-fluoro-2'-β-C-methyl Guanosine Phosphoramidate Prodrug” (ACS Med Chem Lett, 2017).

A short description of data set [1]: Cytotoxicity against human HuH7 cells expressing HIV LTR promoter driven luciferase reporter gene in presence of 10% fetal bovine serum by lucifrease reporter gene assay. The data set is classed as cell-based, Huh-7. On the technique in general: A reporter such as luciferase makes a cellular process visible.
The test system of data set [2] is Hepatitis C virus. Nature of the data set: Antiviral activity against HCV 1b replicon infected in human HuH7 cells expressing HIV LTR promoter driven luciferase reporter gene assessed as reduction in viral RNA replication incubated for 48 hrs by lucifrease reporter gene assay. To be noted: genotype 1b, Huh-7, 48 h. The data set is classed as functional, cell-based, Hepacivirus hominis. In general terms: Replicon systems follow genome replication, usually without infectious particles.

Data set [3] has as its system Hepatitis C virus. As to the kind of experiment: Antiviral activity against HCV 1a replicon infected in human HuH7 cells expressing HIV LTR promoter driven luciferase reporter gene assessed as reduction in viral RNA replication incubated for 48 hrs by lucifrease reporter gene assay. It is filed as functional, cell-based, Hepacivirus hominis. To be noted: subtype 1a, Huh-7, 48 h.

The test system of data set [4] is Hepatitis C virus. Nature of the data set: Antiviral activity against HCV 2a replicon infected in human HuH7 cells expressing HIV LTR promoter driven luciferase reporter gene assessed as reduction in viral RNA replication incubated for 48 hrs by lucifrease reporter gene assay. The data set is classed as functional, cell-based, Hepacivirus hominis. To be noted: genotype 2a, Huh-7, 48 h.

Data set [5] concerns Hepatitis C virus. As to the kind of experiment: Antiviral activity against NS5B S282T mutant expressing HCV 1b replicon infected in human HuH7 cells expressing HIV LTR promoter driven luciferase reporter gene assessed as reduction in viral RNA replication incubated for 48 hrs by lucifrease reporter gene assay. The data set is classed as functional, cell-based, Hepacivirus hominis. The note with it: genotype 1b, Huh-7, 48 h.

Where only a bound is given, the exact number is not on record here.

Regarding `COc1nc(N)nc2c1ncn2[C@@H]1O[C@H](CO[P@@](=O)(N[C@@H](C)C(=O)OC2CCCC2)Oc2ccccc2)C[C@@]1(C)F`, the CC50 (as a rule, the concentration giving 50% cytotoxicity) in data set [1] was over 100 µM. The EC50 (as a rule, the concentration at which the effect is half-maximal) came out at 580 nM with Hepatitis C virus [2], 1100 nM in the data set with Hepatitis C virus [3], 390 nM with Hepatitis C virus [4] and 810 nM in the data set on Hepatitis C virus [5].
For the compound `COc1nc(N)nc2c1ncn2[C@@H]1O[C@H](CO)C[C@@]1(C)F`, the half-maximal cytotoxic concentration (CC50) in data set [1] was over 100 µM. For the same compound, the EC50 in the data set with Hepatitis C virus [2] is over 100000 nM.
